Data as given in ChEMBL document CHEMBL1156531, “Designer enediynes generate DNA breaks, interstrand cross-links, or both, with concomitant changes in the regulation of DNA damage responses” (2007).
Active and inactive are the calls of the source. The rule behind the calls is not given here.

Key:
[1] = target: T1, Serine/threonine-protein kinase Chk1 (Homo sapiens) (UniProt O14757); experiment: Decrease in Chk1-Ser-345 phosphorylation in ataxia telangiectasia mutated and Rad3 related-deficient human HCT116 cells at 1 nM after 1 hr by Western blotting; format: cell-based; settings: HCT-116
T1 sequence (whole entry): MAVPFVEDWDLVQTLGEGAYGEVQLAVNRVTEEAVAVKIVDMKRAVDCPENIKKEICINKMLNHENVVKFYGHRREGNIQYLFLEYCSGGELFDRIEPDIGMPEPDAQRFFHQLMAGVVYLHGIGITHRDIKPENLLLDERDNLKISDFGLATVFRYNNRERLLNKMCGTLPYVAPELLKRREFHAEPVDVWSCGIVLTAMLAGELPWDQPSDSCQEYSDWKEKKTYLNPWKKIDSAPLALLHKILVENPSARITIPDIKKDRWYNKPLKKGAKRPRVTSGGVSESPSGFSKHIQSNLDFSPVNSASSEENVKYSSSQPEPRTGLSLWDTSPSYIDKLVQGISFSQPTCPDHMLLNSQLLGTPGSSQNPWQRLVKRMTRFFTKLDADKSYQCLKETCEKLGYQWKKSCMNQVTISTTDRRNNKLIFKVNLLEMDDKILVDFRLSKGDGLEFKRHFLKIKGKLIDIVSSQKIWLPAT

[2] = Induction of double-strand break in BamH1-linearized pBR322 plasmid DNA assessed as linear DNA under aerobic condition relative to C-1027; settings: Bacillus amyloliquefaciens
[3] = test system: Bacillus amyloliquefaciens; experiment: Induction of interstrand cross-link in BamH1-linearized pBR322 plasmid DNA assessed as amount of double-stranded DNA remaining at 130 nM after 4 hrs under anaerobic cell-free condition
[4] = test system: Bacillus amyloliquefaciens; experiment: Induction of interstrand cross-link in BamH1-linearized pBR322 plasmid DNA assessed as amount of double-stranded DNA remaining at 13 nM after 4 hrs under anaerobic cell-free condition
HCT-116 [5] = experiment: Induction of double-strand DNA break in human HCT116 cells after 4 hrs by comet assay; format: cell-based
[6] = test system: Bacillus amyloliquefaciens; experiment: Induction of interstrand cross-link in BamH1-linearized pBR322 plasmid DNA assessed as amount of double-stranded DNA remaining after denaturation relative to C-1027
BSC-1 [7] = experiment: Induction of double-strand DNA break in SV40-infected african green monkey BSC1 cells assessed as amount of linear DNA at 8 nM after 4 hrs; format: cell-based; settings: Betapolyomavirus macacae
HCT-116 [8] = experiment: Induction of DNA interstand cross-link in human HCT116 cells after 4 hrs by comet assay; format: cell-based
BSC-1 [9] = experiment: Increase in DNA interstand cross-link in SV40-infected african green monkey BSC1 cells assessed as amount of double-stranded DNA remaining after denaturation at 200 nM after 4 hrs; format: cell-based; settings: Betapolyomavirus macacae
HCT-116 [10] = experiment: Ratio of IC50 for mock siRNA-treated human HCT116 cells to IC50 for siATR (ataxia telangiectasia mutated and Rad3 related)-treated human HCT116 cells after 3 days; format: functional
BSC-1 [11] = experiment: Induction of DNA interstand cross-link in SV40-infected african green monkey BSC1 cells assessed as amount of double-stranded DNA remaining after denaturation at 40 nM after 4 hrs; format: cell-based; settings: Betapolyomavirus macacae
BSC-1 [12] = experiment: Induction of double-strand DNA break in SV40-infected african green monkey BSC1 cells assessed as amount of linear DNA at 10 uM after 4 hrs; format: cell-based; settings: Betapolyomavirus macacae
BSC-1 [13] = experiment: Induction of double-strand DNA break in SV40-infected african green monkey BSC1 cells assessed as amount of linear DNA after 4 hrs; format: cell-based; settings: Betapolyomavirus macacae
[14] = target: T1, Serine/threonine-protein kinase Chk1 (Homo sapiens); experiment: Decrease in Chk1-Ser-345 phosphorylation in ataxia telangiectasia mutated and Rad3 related-deficient human HCT116 cells at 3 nM after 1 hr by Western blotting; format: cell-based; settings: HCT-116
BSC-1 [15] = experiment: Induction of DNA interstand cross-link in SV40-infected african green monkey BSC1 cells assessed as amount of double-stranded DNA remaining after denaturation after 4 hrs; format: cell-based; settings: Betapolyomavirus macacae

For `C=C1Oc2cc(OC)cc(C(=O)O[C@H]3COC(=O)C[C@H](N)c4cc(O)c(c(Cl)c4)O[C@@H]4C#C/C=C/3C#CC3=CC=C[C@@]34O[C@@H]3OC(C)(C)[C@@H](N(C)C)[C@@H](O)[C@H]3O)c2NC1=O`, the Activity [1] was “Active”, the Activity [2] was 1% and the Activity [3] was greater than 30%. The Activity [4] was 13%, the Activity (HCT-116 [5]) was “inactive” and the Activity [6] was 1%. For the same compound, the Activity (BSC-1 [7]) was 20%, the Activity (HCT-116 [8]) was “Active” and the Activity (BSC-1 [9]) was “Active”. The “Ratio IC50” value (HCT-116 [10]) was 1.1 and the Activity (BSC-1 [11]) was “Active”.

Compound `C=C1Oc2cc(OC)cc(C(=O)O[C@H]3COC(=O)C[C@H](N)c4ccc(c(Cl)c4)O[C@@H]4C#C/C=C/3C#CC3=CC=C[C@@]34O[C@@H]3OC(C)(C)[C@@H](N(C)C)[C@@H](O)[C@H]3O)c2NC1=O` has an Activity [2] of 0.033%.

For `C=C1Oc2cc(O)cc(C(=O)O[C@H]3COC(=O)C[C@H](N)c4cc(O)c(c(Cl)c4)O[C@@H]4C#C/C=C/3C#CC3=CC=C[C@@]34O[C@@H]3OC(C)(C)[C@@H](N(C)C)[C@@H](O)[C@H]3O)c2NC1=O`, the Activity [2] was 0.02%, the Activity (BSC-1 [12]) was “inactive” and the Activity (HCT-116 [5]) was “inactive”. For the same compound, the Activity [6] was 1%, the Activity (HCT-116 [8]) was “Active” and the Activity (BSC-1 [9]) was “Active”. For the same compound, the “Ratio IC50” value (HCT-116 [10]) was 2.5.

In the case of `C=C1Oc2cc(OC)cc(C(=O)O[C@H]3COC(=O)C[C@H](N)c4ccc(c(O)c4)O[C@@H]4C#C/C=C/3C#CC3=CC=C[C@@]34O[C@@H]3OC(C)(C)[C@@H](N(C)C)[C@@H](O)[C@H]3O)c2NC1=O`, the Activity [2] is reported as 0.25%, the Activity (BSC-1 [13]) is reported as “Dose-dependent effect” and the Activity [14] is reported as “Active”. For the same compound, the Activity [6] was less than 0.003%, the “Ratio IC50” value (HCT-116 [10]) was 1.3 and the Activity (BSC-1 [15]) was “inactive”.
